Test results as given in US20130011845A1, “MICRORNA REGULATING THE INSULIN SIGNALING PATHWAY, AND METHOD FOR SCREENING MATERIAL FOR CONTROLLING THE ACTION OF A TARGET THEREOF” (SNU R & DB Foundation, priority 2009, published 2013).
d = 2'-deoxy (DNA); r = 2'-OH (RNA)

Tests used:
FOXO [1] = assay: FOXO luciferase reporter (pFK1tk-luc) assay in Hep3B cells; assay type: cell-based, human
Source text: The inventors analyzed the effect of miR-200 miRNAs on the downstream transducers of Akt (see FIGS. 44 to 47). Because Akt represses FOXO activity, the inventors used a luciferase reporter plasmid (pFK1tk-luc) (Biggs, W H et al., 1999, Proc Natl Acad Sci USA 96, 7421-7426) containing eight FOXO-binding sites to determine the level of FOXO activity in cultured cells. Specifically, Hep3B cells were transfected with synthesized siGFP, miR-141, miR-200a, miR-200b, miR-200c, miR-429 or siFOG2 together with pFK1tk-luc vector, and then luciferase activity was measured in the same manner as described Example 8-2. Also, Hep3B cells were transfected with luciferase, or oligonucleotides having complementary sequence to miR-141, miR-200a, miR-200b, miR-200c or miR-429 together with pFK1tk-luc vector. Then, the luciferase activity was measured in the same manner as described above. Further, Hep3B cell lines were transfected with pCK-flag (empty vector) and pCK-FOG2 produced in Example 16-1, and the luciferase activity was measured in the same manner as described above. […] Further, treating the cells with miR-200 inhibitors elevated FOXO activity (see FIG. 46).

Akt = assay: western blotting of p-Akt in FAO cell lines; assay type: cell-based; conditions: compared to siGFP
FOXO [2] = assay: FOXO activity in Huh7 cell lines transfected with miR-200 and treated with kinase inhibitors; assay type: cell-based, human; conditions: Huh7 cell lines transfected with miR-141/200a or miR-200b/c/429, inhibitor at 10 μM
RASSF2 3′UTR = assay: dual-luciferase 3′UTR reporter assay, pAC-RASSF2; assay type: cell-based; conditions: luciferase reporter with RASSF2 3′UTR, human Hela cell lines; average of at least two independent experiments
Description: (§1) In order to determine whether the target genes identified in Example 7 are in actuality targets of miR-8 and miR-200 family miRNAs, the inventors performed cloning. In other words, […] containing the miRNA target sites. Specifically, in order to obtain cDNAs of respective target genes, from drosophila S2 cell lines or human Hela cell lines, total RNA was extracted by using RNeasy mini kit (QIAGEN, US). 1 μg of total RNA and 1 μl of Oligo-dT (Invitrogen, US) were charged with up to 50 μl of distilled water, and placed into SuperScript First-Strand Synthesis System (Invitrogen, US), followed by RT-PCR reaction. Through the reaction at 65° C. for 6 min, at 4° C. for 5 min, at 42° C. for 60 min, at 95° C. for 5 min, and at 4° C. for 5 min, cDNA was synthesized. By using the cDNA (3˜5 μg) as template, and using a primer pair on respective genes noted in Table 3 and PCR Mastermix (Promega, US), PCR was performed on 3′UTR of ush, Lap1, CG8445, dbo, Lar, Ced-12, CG12333, cbt, FOG2, SEPT7, RIN2, SHC1, HOXB5, LF11, TCF7L1, ERBB21P, ELMO2, BAP1, WDR37, KLHL20, PTPRD, RASSF2 and VAC14 from among the target genes selected in Example 7. Herein, PCRP on atro as a drosophila control gene was also performed. After the reaction was completed, the PCR product on each gene's 3′UTR region was cleaved by each of the following restriction enzymes:
(§2) Then, it was cloned into pAC5.1 luciferase vector (a kind gift of Elisa Izaurralde) cleaved by the same restriction enzymes so as to produce a reporter plasmid having a miR-8 or miR-200 family target sequence in luciferase gene's 3′UTR sequence.
(§3) Reporter plasmids and renilla luciferase expression vectors (Promega, US), as noted in Table 4, and miRNAs of miR-200 family of miR-141, miR-200a (hsa-miR-200a, SEQ ID: 87: 5′-[…]-3′), miR-200b, miR-200c (has-miR-200c, SEQ ID: 88: 5′-[…]-3′) and miR-429, and miR-8 (dme-miR-8, SEQ ID: 89: 5′-[…]-3′) were bought from Samchonri and cotransfected into drosophila S2 cell lines or human Hela cell lines. Then, the activities of luciferase were measured through dual-luciferase assay (Promega, US) by a luminometer (Biorad). Then, 7 gene pairs that respond both to miR-8 and to mir-200 family miRNAs in Drosophila and human cells, respectively were identified (see FIG. 15).

FOG2 3′UTR = assay: dual-luciferase 3′UTR reporter assay, pAC-FOG2; assay type: cell-based; conditions: luciferase reporter with FOG2 3′UTR, human Hela cell lines; average of at least two independent experiments
Description: as §1, §2, §3

TCF7L1 3′UTR = assay: dual-luciferase 3′UTR reporter assay, pAC-TCF7L1; assay type: cell-based; conditions: luciferase reporter with TCF7L1 3′UTR, human Hela cell lines; average of at least two independent experiments
Description: as §1, §2, §3

RIN2 3′UTR = assay: dual-luciferase 3′UTR reporter assay, pAC-RIN2; assay type: cell-based; conditions: luciferase reporter with RIN2 3′UTR, human Hela cell lines; average of at least two independent experiments
Description: as §1, §2, §3

Hep3B cells = assay: MTT cellular viability assay; assay type: cell-based, human; conditions: Hep3B cells transfected with 30 nM
Description: Because stimulation of PI3K and Akt is known to facilitate cell proliferation and antagonize apoptosis (Pollak, 2008), the inventors measured cellular viability with the MTT (3-(4,5-dimethylthiazol-2-yl)-2,5-diphenyltetrazolium bromide) assay in Hep3B cells. Specifically, Hep3B cells were plated in a 96-well plate, and transfected with 30 nM of synthesized siGFP, miR-141, miR-200a, miR-200b, miR-200c, miR-429 or siFOG2. Then, to the plate, 50 μl of MTT solution (2 mg/ml) (Promega, US) was added per each well, followed by culturing at 37 °C for 1 hour. Then, each well was added with 150 μl of DMSO, and measured by a microplate reader (Bio-rad, US) at a wavelength of 590 nm. Also, Hep3B cells were transfected with 200 nM of luciferase, or 200 nM of oligonucleotides having complementary sequences to miR-141, miR-200a, miR-200b, miR-200c or miR-429, and then were subjected to MTT assay in the same manner as described above.

ELMO2 3′UTR = assay: dual-luciferase 3′UTR reporter assay, pAC-ELMO2; assay type: cell-based; conditions: luciferase reporter with ELMO2 3′UTR, human Hela cell lines; average of at least two independent experiments
Description: as §1, §2, §3

BAP1 3′UTR = assay: dual-luciferase 3′UTR reporter assay, pAC-BAP1; assay type: cell-based; conditions: luciferase reporter with BAP1 3′UTR, human Hela cell lines; average of at least two independent experiments
Description: as §1, §2, §3

KLHL20 3′UTR = assay: dual-luciferase 3′UTR reporter assay, pAC-KLHL20; assay type: cell-based; conditions: luciferase reporter with KLHL20 3′UTR, human Hela cell lines; average of at least two independent experiments
Description: as §1, §2, §3

KLF11 3′UTR = assay: dual-luciferase 3′UTR reporter assay, pAC-KLF11; assay type: cell-based; conditions: luciferase reporter with KLF11 3′UTR, human Hela cell lines; average of at least two independent experiments
Description: as §1, §2, §3

SEPT7 3′UTR = assay: dual-luciferase 3′UTR reporter assay, pAC-SEPT7; assay type: cell-based; conditions: luciferase reporter with SEPT7 3′UTR, human Hela cell lines; average of at least two independent experiments
Description: as §1, §2, §3

PTPRD 3′UTR = assay: dual-luciferase 3′UTR reporter assay, pAC-PTPRD; assay type: cell-based; conditions: luciferase reporter with PTPRD 3′UTR, human Hela cell lines; average of at least two independent experiments
Description: as §1, §2, §3

VAC14 3′UTR = assay: dual-luciferase 3′UTR reporter assay, pAC-VAC14; assay type: cell-based; conditions: luciferase reporter with VAC14 3′UTR, human Hela cell lines; average of at least two independent experiments
Description: as §1, §2, §3

ERBB2IP 3′UTR = assay: dual-luciferase 3′UTR reporter assay, pAC-ERBB2IP; assay type: cell-based; conditions: luciferase reporter with ERBB2IP 3′UTR, human Hela cell lines; average of at least two independent experiments
Description: as §1, §2, §3

WDR37 3′UTR = assay: dual-luciferase 3′UTR reporter assay, pAC-WDR37; assay type: cell-based; conditions: luciferase reporter with WDR37 3′UTR, human Hela cell lines; average of at least two independent experiments
Description: as §1, §2, §3

SHC1 3′UTR = assay: dual-luciferase 3′UTR reporter assay, pAC-SHC1; assay type: cell-based; conditions: luciferase reporter with SHC1 3′UTR, human Hela cell lines; average of at least two independent experiments
Description: as §1, §2, §3

HOXB5 3′UTR = assay: dual-luciferase 3′UTR reporter assay, pAC-HOXB5; assay type: cell-based; conditions: luciferase reporter with HOXB5 3′UTR, human Hela cell lines; average of at least two independent experiments
Description: as §1, §2, §3

p85α = biological target: T1, p85α (Homo sapiens, UniProt P27986); assay: in vitro binding assay with GST-fused recombinant p85α; conditions: purified GST-fused recombinant p85α protein
T1 construct: GST (N); made in house; host or cells: E. coli BL21
Source text: In order to test whether FOG2 directly binds to p85α, the inventors cleaved PCR product on p85α gene (obtained from Example 20-1) by BamHI and EcoRI, and cloned into pGEX5X-1 vector (GE Healthcare, US) cleaved by the same restriction enzymes so as to produce GST-fused recombinant p85α expression vector. The expression vector was transfected into BL21 (Promega, US) through electroporation, and according to a known method, the […] protein was expressed and purified from bacteria (Studier, F. W. et al., 1986, J. Mol. Biol. 189, 113-130), and was used in the following in vitro binding assay, along with purified GST-fused recombinant p85α protein.

PI3K = biological target: T2, PI3K (Homo sapiens, UniProt P27986); assay: in vitro PI3K assay on immunoprecipitated PI3K complex; assay type: biochemical; conditions: recombinant protein added to the immunoprecipitated PI3K complex
T2 construct: endogenous in cells; host or cells: Hep3B cell lysate (method paragraph)
T2 sequence (P27986 whole entry): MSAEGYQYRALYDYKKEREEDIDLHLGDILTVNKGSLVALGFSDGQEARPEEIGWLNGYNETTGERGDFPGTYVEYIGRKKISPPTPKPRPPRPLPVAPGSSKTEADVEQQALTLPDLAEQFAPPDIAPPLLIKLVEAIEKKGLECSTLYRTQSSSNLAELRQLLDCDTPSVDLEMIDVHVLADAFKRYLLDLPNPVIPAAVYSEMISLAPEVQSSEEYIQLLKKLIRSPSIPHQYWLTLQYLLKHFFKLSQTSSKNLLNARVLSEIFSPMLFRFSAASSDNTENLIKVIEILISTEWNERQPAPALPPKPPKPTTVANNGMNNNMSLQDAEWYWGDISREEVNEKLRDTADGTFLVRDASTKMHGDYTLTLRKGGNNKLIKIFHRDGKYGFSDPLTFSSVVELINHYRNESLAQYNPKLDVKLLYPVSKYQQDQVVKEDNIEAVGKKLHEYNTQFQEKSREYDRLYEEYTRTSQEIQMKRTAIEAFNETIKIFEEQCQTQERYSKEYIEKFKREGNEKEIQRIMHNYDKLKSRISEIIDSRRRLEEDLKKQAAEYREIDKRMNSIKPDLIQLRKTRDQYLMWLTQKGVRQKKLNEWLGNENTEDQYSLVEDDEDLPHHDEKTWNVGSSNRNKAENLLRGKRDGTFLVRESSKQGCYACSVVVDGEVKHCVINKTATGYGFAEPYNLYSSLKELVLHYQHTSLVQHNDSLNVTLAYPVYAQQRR

T1 sequence (P27986 whole entry, the tested form may be a part): as the sequence (P27986 whole entry) above

## 5′-UUAUUCAAGUCCAUCUUCCdTdT-3′ (UUAUUCAAGUCCAUCUUCCTT; siRNA; sugars from the 5' end r19 d2, backbone not given here) [siFOG2]
FOXO [1]
  FOXO activity (activity of luciferase, pFK1tk-luc): significantly repressed
Akt
  p-Akt levels: increased p-Akt levels

## N#CC(=C(/N)Sc1ccccc1N)/C(C#N)=C(\N)Sc1ccccc1N [U0126]
FOXO [2]
  miR-200-mediated FOXO regulation (FOXO activity): did not affect miR-200-mediated FOXO regulation

## 5′-UAAUACUGCCGGGUAAUGAUGGA-3′ [miR-200c]
RASSF2 3′UTR
  Represion fold, RASSF2: 0.99 fold
FOG2 3′UTR
  Represion fold, FOG2: 0.32 fold
TCF7L1 3′UTR
  Represion fold, TCF7L1: 0.80 fold
RIN2 3′UTR
  Represion fold, RIN2: 1.30 fold
Hep3B cells
  cell viability (MTT): increased cell viability
ELMO2 3′UTR
  Represion fold, ELMO2: 0.86 fold
FOXO [1]
  FOXO activity (activity of luciferase, pFK1tk-luc): significantly repressed
BAP1 3′UTR
  Represion fold, BAP1: 0.74 fold
KLHL20 3′UTR
  Represion fold, KLHL20: 0.69 fold
KLF11 3′UTR
  Represion fold, KLF11: 1.07 fold
SEPT7 3′UTR
  Represion fold, SEPT7: 1.29 fold
PTPRD 3′UTR
  Represion fold, PTPRD: 0.97 fold
VAC14 3′UTR
  Represion fold, VAC14: 1.20 fold
ERBB2IP 3′UTR
  Represion fold, ERBB2IP: 0.59 fold
WDR37 3′UTR
  Represion fold, WDR37: 1.21 fold
SHC1 3′UTR
  Represion fold, SHC1: 1.85 fold
HOXB5 3′UTR
  Represion fold, HOXB5: 0.87 fold

## O=C1c2ccccc2-c2n[nH]c3cccc1c23 [SB600125]
FOXO [2]
  miR-200-mediated FOXO regulation (FOXO activity): did not affect miR-200-mediated FOXO regulation

B1: recombinant FOG2 protein: recombinant FOG2 protein containing the middle region of FOG2 (413-789 aa), expressed and purified from bacteria (protein, UniProt Q8WW38 413-789, looked up, fragment)
chain: DLLTRSELPQSQKAMQTKDASSDTELDKCEKKTQLFLTNQRPEIQPTTNKQSFSYTKIKSEPSSPRLASSPVQPNIGPSFPVGPFLSQFSFPQDITMVPQASEILAKMSELVHRRLRHGSSSYPPVIYSPLMPKGATCFECNITFNNLDNYLVHKKHYCSSRWQQMAKSPEFPSVSEKMPEALSPNTGQTSINLLNPAAHSADPENPLLQTSCINSSTVLDLIGPNGKGHDKDFSTQTKKLSTSSNNDDKINGKPVDVKNPSVPLVDGESDPNKTTCEACNITFSRHETYMVHKQYYCATRHDPPLKRSASNKVPAMQRTMRTRKRRKMYEMCLPEQEQRPPLVQQRFLDVANLNNPCTSTQEPTEGLGECYHPRCD
p85α
  binding to recombinant p85α: specifically bound to recombinant p85α
PI3K
  PI3K activity: significantly inhibited the PI3K activity
